Experimental data reported in patent US10155751B2, “Pyrazolyl-substituted heteroaryls and their use as medicaments” (Boehringer Ingelheim International GmbH, priority 2015, dated 2018).
Where two headings read alike, the source gives them in different places.

Key:
[1] = target: Recombinant human FLT3 (amino acids 564-958) (Homo sapiens (Human), UniProt P36888); test: FLT3 kinase test (ADP Glo); format: biochemical
Description: The activity of the FLT3 kinase protein was determined using the ADP Glo® Luminescence Kinase test (Promega; V9103X). In this homogeneous test the amount of ADP remaining after the kinase reaction is quantified by a luciferin-luciferase reaction using luminescence. The luminescence signal obtained correlates with the amount of ADP still present and thus correlates with the activity of the protein kinase.
The test compounds were dissolved in 100% DMSO at a concentration of 10 mM and diluted in DMSO to a concentration of 5 mM. Serial Dilution is done in 1:10 steps in 100% DMSO. All further dilutions of the substances were carried out with test buffer (50 mM Hepes, pH 7.5, 10 mM MgCl2, 1 mM EGTA, 0.01% Brij35, 0.1% BSA) until a concentration was reached which was 2.5 times above the final test concentration (final concentration of the compounds: 50 μM to 0.005 nM). […] FLT3 enzyme was diluted to 5 nM in the test buffer and 4 μl of this dilution were used in the kinase test (final concentration of FLT3=2 nM in a total volume of 10 μl). After 60 minutes incubation at room temperature 2 μl mixture of 2.5 mg/ml substrate (Poly-Glu/Tyr; Sigma #P0275) and 2.5 mM ultra-pure ATP (Promega #V915B) in test buffer were added to each well and the incubation was continued for a further 90 minutes at room temperature.
(§1) Positive controls are the reaction mixtures that contain no test substance; negative controls (blanks) are reaction mixtures that contain no kinase.
After 90 minutes, 10 μl ADP-Glo® solution (ADP-Glo Reagent #V912B Promega) (heated to room temperature) were added to each well and incubation was continued for a further 60. minutes. Then 20 μl Kinase detection mix (Detection Buffer #V913B Promega; Kinase Detection Substrate #V914B Promega) were added and incubated for 40 minutes at room temperature. The plates were read in Envision Luminescence Reader (Perkin-Elmer).
The output file of the reader is a csv file that contains the well number and measured RLU. For data evaluation and calculation, the measurement of the negative control was set as 0% ctrl and the measurement of the positive control was set as 100% ctrl. Based on this values the % value for the measurement of each substance concentration can be calculated using an Assay Explorer software (e.g. Accelrys). Normally, the % ctrl values calculated are between 0% and 100% values but may also occur outside these limits in individual cases based on variability or compound characteristics. The IC50 values were calculated from the % ctrl values using Assay Explorer software. Calculation: [y=(a−d)/(1+(x/c)^b)+d], a=low value, d=high value; x=conc. M; c=IC50 M; b=hill; y=% ctrl.

[2] = target: Recombinant human SYK (amino acids 342-635), GST-SYK kinase fusion protein (Homo sapiens (Human), UniProt P43405); test: SYK kinase inhibition test (Kinase Glo luminescence); format: biochemical
Description: The catalytic activity of the GST-SYK kinase fusion protein was determined using the Kinase Glo® Luminescence Kinase test (Promega; V6712). In this homogeneous test the amount of ATP remaining after the kinase reaction is quantified by a luciferin-luciferase reaction using luminescence. The luminescence signal obtained correlates with the amount of ATP still present and thus correlates inversely with the activity of the kinase.
The test compounds were dissolved in 100% DMSO at a concentration of 10 mM and diluted in DMSO to a concentration of 1 mM. Serial Dilution is done in 100% DMSO. All further dilutions of the substances were carried out with test buffer (25 mM HEPES pH7.5; 25 mM MgCl2; 5 mM MnCl2; 50 mM KCl; 0.2% HSA; 0.01% CHAPS; 100 μM Na3VO4; 0.5 mM DTT). Dilution steps and concentration range were adapted according to need. 7 μl aliquots of these dilutions were transferred into a 384-well Optiplate (Perkin Elmer, #6007290). GST-SYK was diluted to 12 nM in the test buffer and 5 μl of this dilution were used in the kinase test (final concentration of SYK=4 nM in a total volume of 15 μl). After 15 minutes incubation at room temperature 3 μl of a mixture of 750 nM ATP and 100 μg/ml poly (L-Glutamic acid L-Tyrosine 4:1), Fluka #81357) in test buffer were added to each well and the incubation was continued for a further 60 minutes at room temperature.
as §1
After 60 minutes, 10 μl Kinase-Glo® solution (Promega, Cat. # V6712) (heated to room temperature) were added to each well and incubation was continued for a further 15 minutes. The plates were read in Envision Luminescence Reader (Perkin-Elmer).
The output file of the reader is a csv file that contains the well number and measured relative light units (RLU). For data evaluation and calculation, the measurement of the negative control was set as 100% ctrl and the measurement of the positive control was set as 0% ctrl. Based on this values the % value for the measurement of each substance concentration was calculated using an Assay Explorer software (Accelrys). Normally, the % ctrl values calculated are between 0% and 100% values but may also occur outside these limits in individual cases based on variability or compound characteristics. The IC50-values were calculated from the % ctrl values using Assay Explorer software. Calculation: [y=(a−d)/(1+(x/c)^b)+d] a=low value, d=high value; x=conc M; c=IC50 M; b=hill; y=% ctrl.
Satisfying SYK inhibitory capacities are represented by an IC50(SYK)-Value measured by this assay of <10 nMol.

[3] = read-out: FLT3 inhibition IC50-value (chapter 5.4)
[4] = read-out: SYK inhibition IC50-value (chapter 5.1)
[5] = read-out: IC50(SYK) in SYK-inhibition assay

Chain of Recombinant human FLT3 (amino acids 564-958) (P36888 564-958): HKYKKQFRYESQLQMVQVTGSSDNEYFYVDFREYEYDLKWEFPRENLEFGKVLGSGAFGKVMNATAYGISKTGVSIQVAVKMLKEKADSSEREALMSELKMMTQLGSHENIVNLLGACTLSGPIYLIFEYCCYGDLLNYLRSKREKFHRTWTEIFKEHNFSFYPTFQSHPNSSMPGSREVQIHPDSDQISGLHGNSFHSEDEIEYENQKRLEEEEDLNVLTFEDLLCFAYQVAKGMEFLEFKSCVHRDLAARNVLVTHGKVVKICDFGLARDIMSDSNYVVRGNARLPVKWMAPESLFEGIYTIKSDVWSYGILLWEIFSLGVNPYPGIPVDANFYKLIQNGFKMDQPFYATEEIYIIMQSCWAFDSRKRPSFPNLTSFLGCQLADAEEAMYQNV

Cc1c2c(O[C@H](C)[C@H]3CNC(=O)C3)cc(-c3cnn(C4CCC4)c3)cc2nn1C [Example 21, (R)-4-{(R)-1-[6-(1-Cyclobutyl-1H-pyrazol-4-yl)-2,3-dimethyl-2H-indazol-4-yloxy]-ethyl}-pyrrolidin-2-one]
IC50 [1, 3]: 2210 nM | IC50 [2, 4]: 1.2 nM

Cc1c2c(O[C@H](C)[C@H]3CNC(=O)C3)cc(-c3cnn(C4CCC(F)(F)C4)c3)cc2nn1C (stereo partly drawn) [Example 22, (R)-4-((R)-1-{6-[1-(3,3-Difluoro-cyclopentyl)-1H-pyrazol-4-yl]-2,3-dimethyl-2H-indazol-4-yloxy}-ethyl)-pyrrolidin-2-one]
IC50 [1, 3]: 1950 nM | IC50 [2, 4]: 1.2 nM

C[C@@H](Oc1nc(-c2cnn(C(C)(C)C)c2)cc2ncn(C)c12)[C@H]1CNC(=O)C1 [example 3A.02, on page 196 of WO15017610, reference compound]
IC50 [1, 3]: 384 nM | IC50 ([1]; read-out: IC50(FLT3)): 384 nM | IC50 [2, 5]: < 10 nM | IC50 [2, 4]: 1.9 nM

C[C@@H](Oc1cc(-c2cnn(C(C)(C)C)c2)cc2ncn(C)c12)[C@H]1CNC(=O)C1 [example 3B.22 on page 219 of WO15017610, reference compound]
IC50 [1, 3]: 307 nM | IC50 ([1]; read-out: IC50(FLT3)): 307 nM | IC50 [2, 5]: < 10 nM | IC50 [2, 4]: 0.8 nM

Cc1cnn2cc(-c3cnn(C(C)(C)C)c3)nc(O[C@H](C)[C@H]3CNC(=O)C3)c12 [example 5.20 on page 506 of WO15017610, reference compound]
IC50 [1, 3]: 43 nM | IC50 ([1]; read-out: IC50(FLT3)): 43 nM | IC50 [2, 5]: < 10 nM | IC50 [2, 4]: 0.2 nM

Cc1cnn2cc(-c3cnn(C(C)(C)C)c3)cc(O[C@H](C)[C@H]3CNC(=O)C3)c12 [example 6.09 on page 559 of WO15017610, reference compound]
IC50 [1, 3]: 25 nM | IC50 ([1]; read-out: IC50(FLT3)): 25 nM | IC50 [2, 5]: < 10 nM | IC50 [2, 4]: 0.1 nM

Cc1cc2c(O[C@H](C)[C@H]3CNC(=O)C3)cc(-c3cnn(C(C)(C)C)c3)cn2n1 [example 6.60 on page 587 of WO15017610, reference compound]
IC50 [1, 3]: 6680 nM | IC50 ([1]; read-out: IC50(FLT3)): 6680 nM | IC50 [2, 5]: 10.3 nM | IC50 [2, 4]: 10.3 nM
